In PubChem BioAssay (NCI):
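Growth conditions: 96-well plates. Treatment: test compound, 48 hours, 5 concentrations. Analysis: linear interpolation between bracketing concentrations; unreached endpoints set to highest concentration. TGI marks complete inhibition of growth.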

Legend:
Assay in all cases: DTP human tumour cell line panel, 48 h
SNB-78 CNS = system: SNB-78 CNS
ACHN renal = system: ACHN renal
HCT-116 colon = system: HCT-116 colon
RXF-631 renal = system: RXF-631 renal
OVCAR-8 ovarian = system: OVCAR-8 ovarian
DLD-1 colon = system: DLD-1 colon
TK-10 renal = system: TK-10 renal
NCI-H460 lung = system: NCI-H460 lung
LOX IMVI melanoma = system: LOX IMVI melanoma
UO-31 renal = system: UO-31 renal
M19-MEL melanoma = system: M19-MEL melanoma
MOLT-4 leukemia = system: MOLT-4 leukemia
UACC-62 melanoma = system: UACC-62 melanoma
KM12 colon = system: KM12 colon
NCI-H23 lung = system: NCI-H23 lung
K-562 leukemia = system: K-562 leukemia
LXFL 529 NSCLC = system: LXFL 529 NSCLC
A549 NSCLC = system: A549 NSCLC
SK-MEL-2 melanoma = system: SK-MEL-2 melanoma
SN12C renal = system: SN12C renal
NCI-H522 lung = system: NCI-H522 lung
SF-539 CNS = system: SF-539 CNS
HCC-2998 colon = system: HCC-2998 colon
SK-MEL-28 melanoma = system: SK-MEL-28 melanoma
DMS 273 small cell lung = system: DMS 273 small cell lung
SW-620 colon = system: SW-620 colon
COLO 205 colon = system: COLO 205 colon
MALME-3M melanoma = system: MALME-3M melanoma
A498 renal = system: A498 renal
UACC-257 melanoma = system: UACC-257 melanoma
HOP-92 NSCLC = system: HOP-92 NSCLC
SK-OV-3 ovarian = system: SK-OV-3 ovarian
SNB-75 CNS = system: SNB-75 CNS
DMS 114 small cell lung = system: DMS 114 small cell lung
SK-MEL-5 melanoma = system: SK-MEL-5 melanoma
SR leukemia = system: SR leukemia
EKVX NSCLC = system: EKVX NSCLC
RXF 393 renal = system: RXF 393 renal
U251 CNS = system: U251 CNS
OVCAR-5 ovarian = system: OVCAR-5 ovarian
786-0 renal = system: 786-0 renal
HOP-18 NSCLC = system: HOP-18 NSCLC
HOP-62 NSCLC = system: HOP-62 NSCLC
M14 melanoma = system: M14 melanoma
HT29 colon = system: HT29 colon
KM20L2 colon = system: KM20L2 colon
SF-268 CNS = system: SF-268 CNS
HL-60(TB) leukemia = system: HL-60(TB) leukemia
OVCAR-4 ovarian = system: OVCAR-4 ovarian
OVCAR-3 ovarian = system: OVCAR-3 ovarian
CAKI-1 renal = system: CAKI-1 renal
SF-295 CNS = system: SF-295 CNS
IGROV1 ovarian = system: IGROV1 ovarian
CCRF-CEM leukemia = system: CCRF-CEM leukemia
SNB-19 CNS = system: SNB-19 CNS
NCI-H226 lung = system: NCI-H226 lung
HCT-15 colon = system: HCT-15 colon
XF 498 CNS = system: XF 498 CNS
RPMI-8226 leukemia = system: RPMI-8226 leukemia

Measured: TGI

O=C1CC(O)C=C1Nc1ccc(Cl)cc1 (stereo not drawn)
32.6 µM: A498 renal
39.2 µM: KM12 colon
95.6 µM: HL-60(TB) leukemia
60.8 µM: EKVX NSCLC
35.5 µM: A549 NSCLC
44.5 µM: HCC-2998 colon
5.14 µM: UACC-62 melanoma
22.3 µM: COLO 205 colon
48.4 µM: NCI-H522 lung
90.9 µM: SR leukemia
37.8 µM: KM20L2 colon
not listed: HCT-15 colon | XF 498 CNS | RPMI-8226 leukemia
> 100 µM: all other assays above

N#CCC(=O)Nc1cccc(C(F)(F)F)c1
not listed: K-562 leukemia | HOP-92 NSCLC | DMS 114 small cell lung | RPMI-8226 leukemia
> 100 µM: all other assays above

Cc1ccc(OCC(=O)N2N=C(c3ccccc3)CC2(O)c2ccccc2)cc1 (stereo not drawn)
40.3 µM: SN12C renal
32.7 µM: OVCAR-5 ovarian
82.8 µM: A549 NSCLC
30 µM: 786-0 renal
46 µM: HOP-62 NSCLC
51.5 µM: SNB-78 CNS
41.3 µM: KM20L2 colon
71.6 µM: OVCAR-4 ovarian
40.2 µM: DMS 273 small cell lung
28.2 µM: NCI-H460 lung
52.5 µM: NCI-H226 lung
90 µM: M14 melanoma
34.1 µM: U251 CNS
not listed: A498 renal | DMS 114 small cell lung | SK-MEL-5 melanoma | EKVX NSCLC | RXF 393 renal | HOP-18 NSCLC | HT29 colon | CCRF-CEM leukemia
> 100 µM: all other assays above

COc1ccc2[nH]c3c(c2c1)CCN(C)CC3
not listed: UO-31 renal | LXFL 529 NSCLC | SN12C renal | NCI-H522 lung | DMS 114 small cell lung | SR leukemia | RXF 393 renal | NCI-H226 lung
> 100 µM: all other assays above
